Assay results taken from US20230365514A1, “MACROCYCLIC COMPOUNDS” (NOVO NORDISK RESEARCH CENTRE OXFORD LIMITED, priority 2017, published 2023).

What was measured:
Type in all cases: binding
[1] = ITC titration with D-galactose; conditions: 10 mM phosphate buffer pH 7.4, 298 K
Procedure: (§1) Isothermal Titration (Micro)Calorimetry (ITC) experiments were performed on a MicroCal iTC200 microcalorimeter and/or a MicroCali VP-ITC. ITC experiments were carried out at 298 K. Saccharide solutions were prepared in HPLC-grade water and allowed to equilibrate overnight if necessary. The sample cell was charged with a known concentration of receptor solution in HPLC-grade water (typically 50 µM - 200 µM). Then, aliquots (typically 1.0 µL) of carbohydrate solution were added and the evolution of heat was followed as a function of time. Heats of dilution were measured by injecting the same carbohydrate solution into HPLC-grade water, using identical conditions. For every addition, the heat of dilution was subtracted from the heat of binding using a MicroCal software programme implemented in ORIGIN 7.0. This gave an XY matrix of heat vs. total guest concentration. This matrix was then imported into a specially written Excel programme to fit the data to a 1:1 binding model to give a Ka. ΔG can be derived from Ka, and ΔS can be derived from ΔH and ΔG using common thermodynamic equations. This method of analysis was used in conjunction with fits for Ka calculated using the MicroCal software to corroborate the results obtained.
(§2) Isothermal Titration MicroCalorimetry (ITC) experiments were performed on a MicroCal iTC200 microcalorimeter and/or a MicroCali VP-ITC. ITC experiments were carried out at 298 K. Saccharide solutions were prepared in HPLC-grade water with 10 mM phosphate buffer solution (pH 7.4) and allowed to equilibrate overnight if necessary. The sample cell was charged with a known concentration of receptor solution in HPLC-grade water with 10 mM phosphate buffer solution at pH 7.4 (typically 50 µM - 200 µM). Then, aliquots (typically 1.0 µL) of carbohydrate solution were added and the evolution of heat was followed as a function of time. Heats of dilution were measured by injecting the same carbohydrate solution into HPLC-grade water with 10 mM phosphate buffer solution at pH 7.4, using identical conditions. […]

[2] = ITC titration with cytosine; conditions: 10 mM phosphate buffer pH 7.4, 298 K
Procedure: (§3) Isothermal Titration (Micro)Calorimetry (ITC) experiments were performed on a MicroCal iTC200 microcalorimeter and/or a MicroCali VP-ITC. ITC experiments were carried out at 298 K. Saccharide solutions were prepared in HPLC-grade water and allowed to equilibrate overnight if necessary. The sample cell was charged with a known concentration of receptor solution in HPLC-grade water (typically 50 µM - 200 µM). Then, aliquots (typically 1.0 µL) of carbohydrate solution were added and the evolution of heat was followed as a function of time. Heats of dilution were measured by injecting the same carbohydrate solution into HPLC-grade water, using identical conditions. For every addition, the heat of dilution was subtracted from the heat of binding using a MicroCal software programme implemented in ORIGIN 7.0. This gave an XY matrix of heat vs. total guest concentration. […] This method of analysis was used in conjunction with fits for Ka calculated using the MicroCal software to corroborate the results obtained.
(§4) Isothermal Titration MicroCalorimetry (ITC) experiments were performed on a MicroCal iTC200 microcalorimeter and/or a MicroCali VP-ITC. […] Heats of dilution were measured by injecting the same carbohydrate solution into HPLC-grade water with 10 mM phosphate buffer solution at pH 7.4, using identical conditions. […]

[3] = ITC titration with 2-deoxy-D-glucose
Procedure: (§5) ITC experiments were carried out at 298 K. Saccharide solutions were prepared in HPLC-grade water with 10 mM phosphate buffer solution (pH 7.4) and allowed to equilibrate overnight if necessary. The sample cell was charged with a known concentration of receptor solution in HPLC-grade water with 10 mM phosphate buffer solution at pH 7.4 (typically 50 µM - 200 µM). Then, aliquots (typically 1.0 µL) of carbohydrate solution were added and the evolution of heat was followed as a function of time. Heats of dilution were measured by injecting the same carbohydrate solution into HPLC-grade water with 10 mM phosphate buffer solution at pH 7.4, using identical conditions. For every addition, the heat of dilution was subtracted from the heat of binding using a MicroCal software programme implemented in ORIGIN 7.0. This gave an XY matrix of heat vs. total guest concentration. This matrix was then imported into a specially written Excel programme to fit the data to a 1:1 binding model to give a Ka. ΔG can be derived from Ka and thus ΔS can be derived from ΔH and ΔG using common thermodynamic equations. […] This method consistently produced more accurate fits than fitting the data to an S-curve, as in the MicroCal software (S-curves are typically not observed for binding constants below ~104 - 105 M^-1).

[4] = ITC titration with myo-inositol; conditions: 10 mM phosphate buffer pH 7.4, 298 K
Procedure: (§6) ITC experiments were carried out at 298 K. Saccharide solutions were prepared in HPLC-grade water with 10 mM phosphate buffer solution (pH 7.4) and allowed to equilibrate overnight if necessary. The sample cell was charged with a known concentration of receptor solution in HPLC-grade water with 10 mM phosphate buffer solution at pH 7.4 (typically 50 µM - 200 µM). Then, aliquots (typically 1.0 µL) of carbohydrate solution were added and the evolution of heat was followed as a function of time. Heats of dilution were measured by injecting the same carbohydrate solution into HPLC-grade water with 10 mM phosphate buffer solution at pH 7.4, using identical conditions. For every addition, the heat of dilution was subtracted from the heat of binding using a MicroCal software programme implemented in ORIGIN 7.0. This gave an XY matrix of heat vs. total guest concentration. This matrix was then imported into a specially written Excel programme to fit the data to a 1:1 binding model to give a Ka. ΔG can be derived from Ka and thus ΔS can be derived from ΔH and ΔG using common thermodynamic equations.

[5] = ITC titration with D-mannitol; conditions: 10 mM phosphate buffer pH 7.4, 298 K
Procedure: as §6

[6] = 1H NMR ROESY of receptor with D-glucose; conditions: receptor 2 mM with D-glucose 5 mM (2.5 equivalents) in D2O
Source text: Chemical exchange peaks (black, annotated) link CH protons on β-D-glucose in free and bound states. Signals for bound α-D-glucose were not observed under these conditions.

[7] = 1H NMR titration with 2-deoxy-D-glucose; conditions: D2O, 10 mM phosphate buffer pH 7.4, 298 K
Procedure: (§7) ^1H-NMR titrations were performed on a Varian VNMR cryogenically cooled S600 spectrometer. Solutions of saccharides in D2O (99.9%), containing receptor at a known concentration to be used in the experiment, were prepared and allowed to equilibrate overnight before use if necessary. Aliquots were then added to an NMR tube containing a known concentration of receptor solution (typically 100 µM - 400 µM). The receptor concentration was therefore held constant while the carbohydrate concentration was increased. The sample tube was shaken after each addition and ^1H-NMR spectra were acquired at 298 K.
(§8) ^1H-NMR titrations were performed on a Varian VNMR cryogenically cooled S600 spectrometer. Solutions of saccharides in D2O (99.9%), containing receptor at a known concentration to be used in the experiment, were prepared and allowed to equilibrate overnight before use if necessary. Aliquots were then added to an NMR tube containing a known concentration of receptor solution (typically 50 µM - 250 µM). The receptor concentration was therefore held constant while the carbohydrate concentration was increased. […]
(§9) If the receptor bound saccharide slower than the NMR sample rate (“slow exchange”), the Ka was determined by analysing the NMR integral of a peak assigned to the Host-Guest complex. […] An estimated error for Ka was obtained from individual data points by assuming the determined Ka and Xlim.

[8] = ITC titration with adenosine; conditions: 10 mM phosphate buffer pH 7.4, 298 K
Procedure: as §3, §4

[9] = ITC titration with D-xylose; conditions: 10 mM phosphate buffer pH 7.4, 298 K
Procedure: as §1, §2

[10] = ITC titration with D-glucose
Procedure: as §5

[11] = ITC titration with L-tryptophan; conditions: 10 mM phosphate buffer pH 7.4, 298 K
Procedure: as §3, §4

[12] = ITC titration with D-glucuronic acid; conditions: 10 mM phosphate buffer pH 7.4, 298 K
Procedure: as §1, §2

[13] = ITC titration with uric acid; conditions: Uric Acid (PBS) pH 7.4, 298 K
Procedure: as §3, §4

[14] = ITC titration with D-ribose; conditions: 10 mM phosphate buffer pH 7.4, 298 K
Procedure: as §1, §2

[15] = ITC titration with uracil; conditions: Uracil (PBS) pH 7.4, 298 K
Procedure: as §3, §4

[16] = ITC titration with N-acetyl-D-glucosamine; conditions: 10 mM phosphate buffer pH 7.4, 298 K
Procedure: as §6

[17] = ITC titration with L-phenylalanine; conditions: 10 mM phosphate buffer pH 7.4, 298 K
Procedure: as §3, §4

[18] = ITC titration with ascorbic acid; conditions: 10 mM phosphate buffer pH 7.4, 298 K
Procedure: as §3, §4

[19] = ITC titration with D-fructose; conditions: 10 mM phosphate buffer pH 7.4, 298 K
Procedure: as §5

[20] = ITC titration with L-fucose; conditions: 10 mM phosphate buffer pH 7.4, 298 K
Procedure: as §3, §4

[21] = 1H NMR titration with D-glucose
Procedure: as §7
^1H-NMR titrations were performed on a Varian VNMR cryogenically cooled S600 spectrometer. Solutions of saccharides in D2O (99.9%), containing receptor at a known concentration to be used in the experiment, were prepared and allowed to equilibrate overnight before use if necessary. Aliquots were then added to an NMR tube containing a known concentration of receptor solution (typically 50 µM - 250 µM). The receptor concentration was therefore held constant while the carbohydrate concentration was increased. The sample tube was shaken after each addition, centrifuged and ^1H-NMR spectra were acquired at 298 K.
If the receptor bound saccharide slower than the NMR sample rate (“slow exchange”), the Ka was determined by analysing the NMR integral of a peak assigned to the Host-Guest complex. The variable X was defined as the integral of an isolated resonance of the complex (typically in the aromatic region) divided by the integral of all the related resonances (typically the whole aromatic region). As X is proportional to fraction of host in the bound state, the change in X could be plotted as a function of the guest concentration to give a curve which could be fitted to a 1:1 binding model to yield the association constant Ka. Mathematically, the fitting process is essentially identical to that employed for binding with fast exchange, except that the integral of a peak due to the complex replaces the chemical shift of a peak due to bound + unbound receptor. The calculation was performed using a non-linear least squares curve-fitting programme implemented within Excel. The programme yields binding constants Ka and limiting X (Xlim) as output. An estimated error for Ka was obtained from individual data points by assuming the determined Ka and Xlim.

[22] = 1H NMR titration with D-cellobiose; conditions: [Host]total 110 µM
Source text: The integrals of the peak at 8.02 ppm (denoted with •, see FIG. 31) were made relative to integral of the same peak (8.02 ppm) when all receptor is assumed to be saturated with guest (i.e. the final addition in the titration, row denoted with yellow). These relative integrals are then used to determine the amount of Host-Guest [HG]. This value for [HG] along with calculated values for free host [H]free and free guest [G]free can be used to calculate the Ka at each point in the titration. […] Not all Ka values calculated were included in the averaged Ka value. The earlier integrations are unreliable due to the very small intensity of the peak at 8.02 ppm. The later integrations were also deemed unreliable due to large deviations in baseline of the spectra due to the large excess of guest present. The selected values for Ka used for the average calculation and the averaged Ka itself corroborate with the results obtained from ITC.

[23] = 1H NMR titration with myo-inositol; conditions: D2O, 10 mM phosphate buffer pH 7.4, 298 K
Procedure: as §7, §8, §9

[24] = ITC titration with D-mannose; conditions: 10 mM phosphate buffer pH 7.4, 298 K
Procedure: as §1, §2

[25] = ITC titration with methyl β-D-glucoside
Procedure: as §5

[26] = ITC titration with D-maltose; conditions: 10 mM phosphate buffer pH 7.4, 298 K
Procedure: as §3, §4

[27] = ITC titration with D-cellobiose
Procedure: as §5

[28] = ITC titration with methyl α-D-glucoside; conditions: 10 mM phosphate buffer pH 7.4, 298 K
Procedure: as §6

[29] = ITC titration with gluconate; conditions: Gluconate (from D-glucono-δ-lactone); 10 mM phosphate buffer pH 7.4, 298 K
Procedure: as §6

[30] = ITC titration with paracetamol; conditions: 10 mM phosphate buffer pH 7.4, 298 K
Procedure: as §3, §4

[31] = 2-Deoxy-D-Glucose, 10 mM phosphate buffer pH 7.4, 298 K
[32] = D-Glucose (DMEM cell culture), 10k MWCO, 10 mM phosphate buffer pH 7.4
[33] = D-Glucose (DMEM salt control), 10 mM phosphate buffer pH 7.4 with added salts
[34] = D-Glucose (Leibovitz’s L-15 cell culture), 10k MWCO, 10 mM phosphate buffer pH 7.4
[35] = D-Glucose (human serum), 10k MWCO, 10 mM phosphate buffer
[36] = D-Glucose, 10 mM phosphate buffer pH 7.4, 298 K
[37] = Methyl β-D-Glucoside, 10 mM phosphate buffer pH 7.4, 298 K
[38] = D-Cellobiose, 10 mM phosphate buffer pH 7.4, 298 K

CCc1c2c(CC)c3c(CC)c1CNC(=O)Nc1ccc(C(=O)NC(CCC(=O)NC(CCC(=O)[O-])(CCC(=O)[O-])CCC(=O)[O-])(CCC(=O)NC(CCC(=O)[O-])(CCC(=O)[O-])CCC(=O)[O-])CCC(=O)NC(CCC(=O)[O-])(CCC(=O)[O-])CCC(=O)[O-])cc1NC(=O)NCc1c(CC)c(c(CC)c(c1CC)CNC(=O)Nc1cc(C(=O)NC(CCC(=O)NC(CCC(=O)[O-])(CCC(=O)[O-])CCC(=O)[O-])(CCC(=O)NC(CCC(=O)[O-])(CCC(=O)[O-])CCC(=O)[O-])CCC(=O)NC(CCC(=O)[O-])(CCC(=O)[O-])CCC(=O)[O-])ccc1NC(=O)NC3)CNC(=O)Nc1cc(C(=O)NC(CCC(=O)NC(CCC(=O)[O-])(CCC(=O)[O-])CCC(=O)[O-])(CCC(=O)NC(CCC(=O)[O-])(CCC(=O)[O-])CCC(=O)[O-])CCC(=O)NC(CCC(=O)[O-])(CCC(=O)[O-])CCC(=O)[O-])ccc1NC(=O)NC2.[Na+].[Na+].[Na+].[Na+].[Na+].[Na+].[Na+].[Na+].[Na+].[Na+].[Na+].[Na+].[Na+].[Na+].[Na+].[Na+].[Na+].[Na+].[Na+].[Na+].[Na+].[Na+].[Na+].[Na+].[Na+].[Na+].[Na+] [Receptor 1, Triethylbenzene Receptor]
TΔS (Determined by ITC) [1]: 1 kcal/mol | ΔG (Determined by ITC) [1]: -3.08 kcal/mol | ΔH (Determined by ITC) [1]: -2.1 kcal/mol | Ka (Determined by ITC) [2]: 0 M⁻¹ | TΔS (Determined by ITC) [3, 31]: 3.2 kcal/mol | ΔG (Determined by ITC) [3, 31]: -3.9 kcal/mol | ΔH (Determined by ITC) [3, 31]: -0.693 kcal/mol | Ka by ITC, fit calculated with the supplied ITC software ([3]; 2-deoxy-D-glucose in H2O): 657 ± 90 M⁻¹ | TΔS (Determined by ITC) [4]: -0.574 kcal/mol | ΔG (Determined by ITC) [4]: -5.28 kcal/mol | Ka (Determined by ITC) [5]: 0 M⁻¹ | Signals for bound α-D-glucose (ROESY) [6]: not observed | Binding implied by 1H NMR spectra (no Ka determinable) [7]: binding with intermediate rate of exchange | Ka (Determined by ITC) [8]: 0 M⁻¹ | TΔS (Determined by ITC) [9]: 3.23 kcal/mol | ΔG (Determined by ITC) [9]: -5.14 kcal/mol | ΔH (Determined by ITC) [9]: -1.91 kcal/mol | TΔS (Determined by ITC) [10, 32]: 3.87 kcal/mol | ΔG (Determined by ITC) [10, 32]: -5.11 kcal/mol | ΔH (Determined by ITC) [10, 32]: -1.24 kcal/mol | TΔS (Determined by ITC) [10, 33]: 3.87 kcal/mol | ΔG (Determined by ITC) [10, 33]: -5.07 kcal/mol | ΔH (Determined by ITC) [10, 33]: -1.2 kcal/mol | TΔS (Determined by ITC) [10, 34]: 4.06 kcal/mol | ΔG (Determined by ITC) [10, 34]: -5.07 kcal/mol | ΔH (Determined by ITC) [10, 34]: -1 kcal/mol | TΔS (Determined by ITC) [10, 35]: 3.66 kcal/mol | ΔG (Determined by ITC) [10, 35]: -4.64 kcal/mol | ΔH (Determined by ITC) [10, 35]: -0.98 kcal/mol | Ka (Determined by ITC) ([10]; D-Glucose pH 6 (PBS), 298 K): 17,300 ± 3.8% | TΔS (Determined by ITC) ([10]; D-Glucose pH 6 (PBS), 298 K): 5.16 kcal/mol | ΔG (Determined by ITC) ([10]; D-Glucose pH 6 (PBS), 298 K): -5.78 kcal/mol | ΔH (Determined by ITC) ([10]; D-Glucose pH 6 (PBS), 298 K): -0.621 kcal/mol | Ka (Determined by ITC) ([10]; D-Glucose pH 7 (PBS), 298 K): 17,800 ± 5.5% | TΔS (Determined by ITC) ([10]; D-Glucose pH 7 (PBS), 298 K): 5.26 kcal/mol | ΔG (Determined by ITC) ([10]; D-Glucose pH 7 (PBS), 298 K): -5.81 kcal/mol | ΔH (Determined by ITC) ([10]; D-Glucose pH 7 (PBS), 298 K): -0.526 kcal/mol | Ka (Determined by ITC) ([10]; D-Glucose pH 8 (PBS), 298 K): 18,300 ± 1.8% | TΔS (Determined by ITC) ([10]; D-Glucose pH 8 (PBS), 298 K): 5.21 kcal/mol | ΔG (Determined by ITC) ([10]; D-Glucose pH 8 (PBS), 298 K): -5.81 kcal/mol | ΔH (Determined by ITC) ([10]; D-Glucose pH 8 (PBS), 298 K): -0.621 kcal/mol | Ka (Determined by ITC) [10, 36]: 18,600 ± 14.3% | TΔS (Determined by ITC) [10, 36]: 3.97 kcal/mol | ΔG (Determined by ITC) [10, 36]: -5.83 kcal/mol | ΔH (Determined by ITC) [10, 36]: -1.86 kcal/mol | Ka by ITC, fit calculated with the supplied ITC software ([10]; D-glucose in 10 mM PBS buffer (pH 6)): 19,800 ± 1290 M^-1 | Ka by ITC, fit calculated with the supplied ITC software ([10]; D-glucose in 10 mM PBS buffer (pH 7.4)): 19,100 ± 1310 M^-1 | Ka by ITC, fit calculated with the supplied ITC software ([10]; D-glucose in 10 mM PBS buffer (pH 8)): 23,400 ± 1850 M^-1 | Ka by ITC, fit calculated with the supplied ITC software ([10]; glucose in H2O): 21,000 ± 2640 M^-1 | Ka (Determined by ITC) [11]: 0 M⁻¹ | TΔS (Determined by ITC) [12]: -1.55 kcal/mol | ΔG (Determined by ITC) [12]: -5.09 kcal/mol | ΔH (Determined by ITC) [12]: -6.64 kcal/mol | Ka (Determined by ITC) [13]: 0 M⁻¹ | TΔS (Determined by ITC) [14]: -2.32 kcal/mol | ΔG (Determined by ITC) [14]: -3.18 kcal/mol | ΔH (Determined by ITC) [14]: -5.5 kcal/mol | Ka (Determined by ITC) [15]: 0 M⁻¹ | Ka (Determined by ITC) [16]: 0 M⁻¹ | Ka (Determined by ITC) [17]: 0 M⁻¹ | Ka (Determined by ITC) [18]: 0 M⁻¹ | TΔS (Determined by ITC) [19]: -2.27 kcal/mol | ΔG (Determined by ITC) [19]: -2.53 kcal/mol | ΔH (Determined by ITC) [19]: -4.78 kcal/mol | Ka (Determined by ITC) [20]: 0 M⁻¹ | Saturation of receptor on addition of 2 equivalents (0.2 mM) of D-glucose (1H NMR) ([21]; D2O with no added salts): did saturate the receptor | Saturation of receptor on addition of 2 equivalents (0.2 mM) of D-glucose (1H NMR) ([21]; with MgSO4 (0.8 mM) and CaCl2 (1.8 mM), D2O, 10 mM phosphate buffer pH 7.4, 298 K): did not saturate the receptor | Ka calculated at titration point (NMR) ([22]; [Guest]total 20 mM): 0.55 M⁻¹ | Ka calculated at titration point (NMR) ([22]; [Guest]total 39 mM): 29.0 M⁻¹ | Ka calculated at titration point (NMR) ([22]; [Guest]total 58 mM): 31.2 M⁻¹ | Ka calculated at titration point (NMR) ([22]; [Guest]total 96 mM): 29.4 M⁻¹ | Ka calculated at titration point (NMR) ([22]; [Guest]total 132 mM): 34.9 M⁻¹ | Ka calculated at titration point (NMR) ([22]; [Guest]total 167 mM): 81.5 M⁻¹ | Ka calculated at titration point (NMR) ([22]; [Guest]total 251 mM): 74.0 M⁻¹ | Ka calculated at titration point (NMR) ([22]; [Guest]total 329 mM): 386 M⁻¹ | Ka (Determined by NMR) [23]: 7328 ± 7.4% | TΔS (Determined by ITC) [24]: 0.14 kcal/mol | ΔG (Determined by ITC) [24]: -2.94 kcal/mol | ΔH (Determined by ITC) [24]: -2.82 kcal/mol | TΔS (Determined by ITC) [25, 37]: 5.07 kcal/mol | ΔG (Determined by ITC) [25, 37]: -5.31 kcal/mol | ΔH (Determined by ITC) [25, 37]: -0.765 kcal/mol | Ka by ITC, fit calculated with the supplied ITC software ([25]; methyl-β-D-glucoside in H2O): 9120 ± 542 M⁻¹ | Ka (Determined by ITC) [26]: 0 M⁻¹ | TΔS (Determined by ITC) [27, 38]: -0.17 kcal/mol | ΔG (Determined by ITC) [27, 38]: -2.03 kcal/mol | ΔH (Determined by ITC) [27, 38]: -2.2 kcal/mol | Ka by ITC, fit calculated with the supplied ITC software ([27]; cellobiose in H2O): 36.6 ± 2.5 M⁻¹ | Ka (Determined by ITC) [28]: 0 M⁻¹ | Ka (Determined by ITC) [29]: 0 M⁻¹ | Ka (Determined by ITC) [30]: 0 M⁻¹
